Source: US11466044B2 (WAYNE STATE UNIVERSITY, priority 2017, dated 2022)
≈ marks a conversion by molar mass, not a printed value. Where two headings read alike, the source gives them in different places.

Experiments:
[1] = test system: MRSA; experiment: MIC by broth microdilution, MRSA isolates; format: cell-based; conditions: for MIC: Staphylococcus aureus, MRSA
[2] = test system: A1555G mutant mitochondrial ribosome (human chimeric); experiment: in-vitro translation assay, human chimeric ribosomes, A1555G mutant mitochondrial decoding site; format: biochemical; conditions: human mitochondrial decoding site with A1555G point mutation; read-out: IC50 Mitoch. A1555G
Excerpt: (§1) The antiribosomal activity of these compounds was investigated with cell-free translation assays using both wild type bacterial ribosomes and hybrid ribosomes carrying eukaryotic decoding A sites enabling the prediction of selectivity.

[3] = test system: wild type bacterial ribosomes; experiment: in-vitro translation assay, bacterial ribosomes; format: biochemical; conditions: Mycobacterium smegmatis ribosomes; read-out: IC50 Bacterial
Excerpt: as §1

[4] = test system: mitochondrial ribosome (human chimeric); format: biochemical; conditions: for Target specificity bacterial vs. Mitochondrial: relative target specificity, bacterial vs. human mitochondrial; for IC50: ribosomes with a human mitochondrial decoding site, read-out: IC50 Mitoch.
Excerpt: as §1

[5] = test system: cytosolic ribosome (human chimeric); format: biochemical; conditions: for Target specificity bacterial vs. Cytosolic: relative target specificity, bacterial vs. human cytosolic; for IC50: ribosomes with a human cytosolic decoding site, read-out: IC50 Cytosolic
Excerpt: as §1

[6] = test system: E coli wild type; experiment: MIC by broth microdilution, wild type E coli; format: cell-based; conditions: for MIC pH430 WT: E. coli strain pH430, WT; for MIC: Escherichia coli
[7] = test system: P aeruginosa; experiment: MIC by broth microdilution, P aeruginosa isolates; format: cell-based, Pseudomonas aeruginosa; conditions: for MIC: Pseudomonas aeruginosa
[8] = test system: rabbit reticulocyte ribosomes; experiment: in-vitro translation assay, rabbit reticulocyte ribosomes; format: biochemical; conditions: mammalian cytosolic ribosomes (rabbit)
[9] = test system: E coli carrying specific resistance determinants; experiment: MIC by broth microdilution, E coli carrying specific resistance determinants; format: cell-based; conditions: for MIC AG003 E. coli AAC(3)-II: clinical isolate AG003, AAC(3)-II; for MIC AG036 ANT(4′,4′′): E. coli strain AG036, ANT(4′,4′′); for MIC AG037 APH(3′)-III: E. coli strain AG037, APH(3′)-III; for MIC AG103 armA: E. coli strain AG103, armA; for MIC pH414 AAC(6′)-I: E. coli strain pH414, AAC(6′)-I; for MIC pH415 AAC(6′)-II: E. coli strain pH415, AAC(6′)-II; for MIC pH421 APH(3)-I: E. coli strain pH421, APH(3)-I; for MIC pH422 APH(3′)-II: E. coli strain pH422, APH(3′)-II; for MIC pH423 APH(3′)-VI: E. coli strain pH423, APH(3′)-VI; for MIC pH432 ANT(4′): E. coli strain pH432, ANT(4′); for MIC: Escherichia coli, read-out: MIC AG003 E. coli AAC(3)-II
[10] = clinical isolate AG039, AAC(6′)-I ANT(4′)-I
[11] = clinical isolate AG042, AAC(6′)-I ANT(4′)-I APH(2′)
[12] = clinical isolate AG031, APH(3′)-II
[13] = clinical isolate AG032, APH(3′)-II
[14] = clinical isolate AG038, read-out: MIC AG038 MRSA
[15] = clinical isolate AG039, AAC(6′)-I ANT(4′)-I, read-out: MIC AG039 MRSA AAC(6′)-I ANT(4′)-I
[16] = clinical isolate AG042, AAC(6′)-I ANT(4′)-I APH(2′), read-out: MIC AG042 MRSA AAC(6′)-I ANT(4′)-I APH(2′)
[17] = clinical isolate AG001, WT, read-out: MIC AG001 E. coli WT
[18] = clinical isolate AG055, WT, read-out: MIC AG055 E. coli WT
[19] = clinical isolate AG031, APH(3′)-II, read-out: MIC AG031 P. aer. APH(3′)-II
[20] = clinical isolate AG032, APH(3′)-II, read-out: MIC AG032 P. aer. APH(3′)-II

Row | SMILES | MIC AG038 MRSA ([1]; clinical isolate AG038) [µg/mL] | MIC AG039 MRSA AAC(6′)-I ANT(4′)-I [1, 10] [µg/mL] | MIC AG042 MRSA AAC(6′)-I ANT(4′)-I APH(2′) [1, 11] [µg/mL] | IC50 [2] [µM] | IC50 [3] [µM] | IC50 [4] [µM] | IC50 [5] [µM] | MIC AG001 E. coli WT ([6]; clinical isolate AG001, WT) [µg/mL] | MIC AG055 E. coli WT ([6]; clinical isolate AG055, WT) [µg/mL] | MIC AG031 P. aer. APH(3′)-II [7, 12] [µg/mL] | MIC AG032 P. aer. APH(3′)-II [7, 13] [µg/mL] | IC50 [8] [µM] | MIC AG003 E. coli AAC(3)-II [9] [µg/mL] | MIC AG044 MRSA ([1]; clinical isolate AG044) [µg/mL] | MIC pH430 WT [6] | MIC AG036 ANT(4′,4′′) [9] [µg/mL] | MIC AG037 APH(3′)-III [9] [µg/mL] | MIC pH421 APH(3)-I [9] [μg/ml] | MIC pH422 APH(3′)-II [9] [μg/ml] | MIC pH423 APH(3′)-VI [9] | further results
1 | CC(=O)N[C@H]1[C@@H](O[C@H]2[C@H](O[C@@H]3O[C@H](CO)[C@@H](O[C@H]4O[C@@H](CN)[C@@H](O)[C@H](O)[C@H]4N)[C@H]3O)[C@@H](O)[C@H](N)C[C@@H]2N)O[C@H](CN)[C@@H](O)[C@@H]1O [DC-183] | >32 | >32 | >32 | 28 | 5.3 | 93 | 147 | >32 | >32 | >32 | >32 | 103 | >32 | – | – | – | – | – | – | – | Target specificity bacterial vs. Mitochondrial [4]: low; Target specificity bacterial vs. Cytosolic [5]: low
2 | CC1CC(N)C2OC(OC3C(N)CC(N)C(O)C3OC3OC(CO)C(OC4OC(CN)C(O)C(O)C4N)C3O)C(N)C(O)C2O1 (stereo not drawn) [DC150] | 128 (≈ 196 µM) | 128 (≈ 196 µM) | 128 (≈ 196 µM) | 2.3 | 0.48 | 4.1 | 12 | >128 | >128 | >128 | >128 | 13 | >128 | 128 (≈ 196 µM) | 64-128 μg/ml | – | – | – | – | – | Target specificity bacterial vs. Mitochondrial [4]: low; Target specificity bacterial vs. Cytosolic [5]: low
3 | NC[C@@H]1O[C@H](O[C@H]2[C@@H](O)[C@H](O[C@@H]3[C@@H](O)[C@H](N)C[C@H](N)[C@H]3O[C@H]3O[C@H](CN)[C@@H](O)[C@H](O)[C@H]3O)O[C@@H]2CO)[C@H](N)[C@@H](O)[C@@H]1O [DC-119] | 2 (≈ 3.25 µM) | >128 | >128 | 2.7 | 0.03 | 36 | 108 | 2 to 4 | 2 to 4 | 128 (≈ 208 µM) | 128 (≈ 208 µM) | 88 | 2 to 4 | 2 (≈ 3.25 µM) | – | – | – | – | – | – | –
4 | CCCC(O)C1OC(OC2C(N)CC(N)C(O)C2OC2OC(CO)C(OC3OC(CN)C(O)C(O)C3N)C2O)C(N)C(O)C1O (stereo not drawn) [DC142] | 4 (≈ 6.08 µM) | >128 | >128 | 20 | 0.04 | 107 | 34 | 8 (≈ 12.2 µM) | 8 (≈ 12.2 µM) | >128 | >128 | 12 | 8 (≈ 12.2 µM) | 2 (≈ 3.04 µM) | 1 μg/ml | 32 to 64 | >32 | >32 | >32 | >32 μg/ml | MIC AG103 armA [9]: 1 µg/mL (≈ 1.52 µM); MIC pH414 AAC(6′)-I [9]: 1 μg/ml; MIC pH415 AAC(6′)-II [9]: 1 μg/ml; MIC pH432 ANT(4′) [9]: 1 μg/ml
5 | NCC1OC(OC2C(CNC=O)OC(OC3C(O)C(N)CC(N)C3OC3OC(CO)C(O)C(O)C3N)C2O)C(N)C(O)C1O (stereo not drawn) [DC137] | 4 (≈ 6.22 µM) | >128 | >128 | 30 | 0.04 | 144 | 90 | 4 (≈ 6.22 µM) | 2 to 4 | ≥128 | 128 (≈ 199 µM) | 29 | 2 to 4 | 2 to 4 | – | – | – | – | – | – | –
6 | CC(O)C1OC(OC2C(N)CC(N)C(O)C2OC2OC(CO)C(OC3OC(CN)C(O)C(O)C3N)C2O)C(N)C(O)C1O (stereo not drawn) [DC156] | 4 to 8 | >128 | >128 | 8.4 | 0.02 | 185 | 2.6 | 4 to 8 | 4 (≈ 6.35 µM) | >32 | >32 | 5.4 | 4 (≈ 6.35 µM) | 2 to 4 | 1 μg/ml | 32 to 64 | >32 | >32 | >32 | >32 μg/ml | Target specificity bacterial vs. Cytosolic [5]: low; MIC AG103 armA [9]: 1 µg/mL (≈ 1.59 µM); MIC pH414 AAC(6′)-I [9]: 1 μg/ml; MIC pH415 AAC(6′)-II [9]: 1 μg/ml; MIC pH432 ANT(4′) [9]: 1 μg/ml
7 | NCC1OC(OC2C(CO)OC(OC3C(O)C(N)CC(N)C3OC3OC(CN)C(O)C(O)C3NC=O)C2O)C(N)C(O)C1O (stereo not drawn) [DC-182] | – | – | – | 13 | 0.12 | 54 | 127 | – | – | – | – | 110 | – | – | – | – | – | – | – | – | MIC [1, 14]: 2 to 4 µg/mL (≈ 3.11 to 6.22 µM); MIC [1, 15]: > 32 µg/mL; MIC [1, 16]: > 32 µg/mL; MIC [6, 17]: 4 to 8 µg/mL (≈ 6.22 to 12.4 µM); MIC [6, 18]: 2 µg/mL (≈ 3.11 µM); MIC [7, 19]: > 32 µg/mL; MIC [7, 20]: > 32 µg/mL; MIC [9]: 4 to 8 µg/mL (≈ 6.22 to 12.4 µM)
8 | CNC1C(OC2C(N)CC(N)C(O)C2OC2OC(CO)C(O)C2O)OC(CN)C(O)C1O (stereo not drawn) [DC-100] | – | – | – | 224 | 0.52 | 457 | 372 | – | – | – | – | 90 | – | – | – | – | – | – | – | – | MIC [1, 14]: 64 to 128 µg/mL (≈ 137 to 273 µM); MIC [1, 15]: > 128 µg/mL; MIC [1, 16]: > 128 µg/mL; MIC ([1]; clinical isolate AG044, read-out: MIC AG044 MRSA): 128 µg/mL (≈ 273 µM); MIC [6, 17]: 64 to 128 µg/mL (≈ 137 to 273 µM); MIC [6, 18]: 64 to 128 µg/mL (≈ 137 to 273 µM); MIC [7, 19]: > 128 µg/mL; MIC [7, 20]: > 128 µg/mL; MIC [9]: 64 µg/mL (≈ 137 µM)
9 | CCCC(O)C1OC(OC2C(N)CC(N)C(O)C2OC2OC(CO)C(OC3OC(CN)C(O)C(O)C3N)C2O)C(N)C(O)C1O (stereo not drawn) [DC143] | 32 to 64 | >64 | >64 | 93 | 0.16 | 328 | 259 | 32 (≈ 48.7 µM) | 32 (≈ 48.7 µM) | >64 | >64 | 66 | 32 (≈ 48.7 µM) | 16 (≈ 24.3 µM) | 4 μg/ml | 64 (≈ 97.3 µM) | >128 | >128 | >128 | 32-64 μg/ml | MIC AG103 armA [9]: 16 to 32 µg/mL; MIC pH432 ANT(4′) [9]: 4 μg/ml
10 | NCC1OC(OC2C(CO)OC(OC3C(O)C(N)CC(N)C3OC3OC4C(O)CCCOC4C(O)C3N)C2O)C(N)C(O)C1O (stereo not drawn) [DC196] | 2 (≈ 3.05 µM) | – | – | 96 | 0.14 | 200 | 88 | 4 (≈ 6.1 µM) | – | >32 | – | 43 | – | – | 4 μg/ml | 2 (≈ 3.05 µM) | >128 | >128 | 64 | 16 μg/ml | –
11 | NC[C@H]1O[C@H](O[C@H]2[C@H](O[C@@H]3O[C@H](CNC=O)[C@@H](O)[C@H]3O)[C@@H](O)[C@H](N)C[C@@H]2N)[C@H](N)[C@@H](O)[C@@H]1O [DC130] | 64 (≈ 133 µM) | >128 | >128 | 190 | 0.24 | 364 | 359 | 32 (≈ 66.5 µM) | 32 (≈ 66.5 µM) | >128 | >128 | 152 | 32 (≈ 66.5 µM) | 128 (≈ 266 µM) | – | – | – | – | – | – | –
